Here are results for 2 compounds from patent EP4813381A1, “PHARMACEUTICAL USE OF GUAIANE SESQUITERPENE DERIVATIVE” (Nanjing University Of Chinese Medicine, priority 2023, dated 2025).

In one data set the test system is MDSCs. Briefly: Inhibition of MDSC chemotaxis (Transwell, Hepa1-6 tumor-conditioned medium). The following applies: 12 h treatment, 24 h Transwell. The format is cell-based, mice. How it is done:
Hepa1-6 mouse hepatocellular carcinoma cells were uniformly seeded into 6-well plates. After cells reached confluence, supernatant was aspirated, and 1-1.5 mL fresh medium was added to each well. Following 24 h culture, supernatant was collected, centrifuged at 1600 rpm for 5 min, aspirated, and filtered through a 0.22 µm membrane to obtain tumor-conditioned medium for subsequent use. Euthanize mice by cervical dislocation and immerse in 75% ethanol solution for 5 min. Under sterile conditions, remove the tibia, cut both ends of the bone, and aspirate the bone marrow into a 1 mL syringe. Repeat flushing into a 15 mL centrifuge tube. Centrifuge at 1600 rpm for 5 min to collect bone marrow cells. Wash twice with 1×PBS. Resuspend cells in complete RPMI 1640 medium containing cytokines GM-CSF (10 ng/mL) and IL-4 (10 ng/mL) to stimulate differentiation into MDSCs. Count cells, adjust density to 1×10^6 cells/mL, and uniformly seed into 24-well plates at 300 µL per well. […] Centrifuge at 1600 rpm for 5 min, remove supernatant, resuspend cells in 300 µL fresh medium, and place into Transwell chambers. Add 600 µL normal medium (control group) or tumor-conditioned medium (model group) to the lower chamber. Co-culture for 24 h.

The subject of a further data set is CCR2 mRNA. Put plainly: CCR2 mRNA level in MDSCs (PCR). The following applies: CCR2 mRNA levels in MDSCs, 2 h. The format is cell-based, mice. How it is done:
Mice were euthanized by cervical dislocation and immersed in 75% ethanol solution for 5 min. Under sterile conditions, the tibia was removed, both ends of the bone were cut, and bone marrow was repeatedly flushed into a 15 mL centrifuge tube using a 1 mL syringe filled with culture medium. Centrifuge at 1600 rpm for 5 min to collect bone marrow cells. Wash twice with 1×PBS, then resuspend in RPMI 1640 complete medium containing GM-CSF (10 ng/mL) + IL-4 (10 ng/mL) and transfer to a cell culture dish to stimulate differentiation of bone marrow cells into MDSCs. Count cells and adjust density to 1 × 10^6 cells/mL in complete medium. Seed cells uniformly into 6-well plates at 2 mL per well. […] After incubation, collect cells into centrifuge tubes, centrifuge at 1600 rpm for 5 min, wash once with 1×PBS, and add 500 µL RNA extraction reagent to each tube. After centrifugation to obtain the pellet, add 20 µL DEPC-treated water to each tube to dissolve the pellet. Determine RNA concentration and reverse transcribe to cDNA. Add the cDNA, primers, and reverse transcriptase to a 96-well plate. Centrifuge at 4000 rpm for 5 min, then place in a PCR instrument for detection.

In the next data set the test system is Hepa1-6 cells. Put plainly: Hepa1-6 mouse hepatocellular carcinoma subcutaneous xenograft model. The format is in vivo, C57BL/6 mice. How it is done:
Hepa1-6 cells were cultured and expanded in vitro. An appropriate amount of cells in the logarithmic growth phase was resuspended in a mixture of serum-free DMEM medium and Matrigel (1:1). under aseptic conditions to prepare a 2.5×10^6/100 µL cell suspension. A 100 µL aliquot of this suspension was injected subcutaneously into the left forearm axilla of male C57BL/6 mice. […] Daily oral administration was performed for 2 weeks. During the treatment period, mouse body weight and tumor diameter were measured daily. At the end of the experiment, mice were euthanized by cervical dislocation, and tumors were removed for weighing. Tumor volume (TV) was calculated using the formula: TV = 1/2 × a × b^2, where a represents the longest diameter of the tumor and b represents the shortest diameter.

The next data set concerns H22 cells. More on the design: species or system BALB/c mice. Particulars: mouse, in vivo, po. How it is done:
(§1) H22 cells were cultured and expanded in vitro. […] A 100 µL aliquot of this suspension was injected subcutaneously into the left forelimb axilla of male BALB/c mice. […] Daily oral administration was performed for 2 weeks. During the treatment period, mouse body weight and tumor diameter were measured daily. At the end of the experiment, mice were euthanized by cervical dislocation, and tumors were removed for weighing. Tumor volume (TV) was calculated using the formula: TV = 1/2 × a × b^2, where a represents the longest diameter of the tumor and b represents the shortest diameter.

Another data set concerns MDSCs; T cells. Further details: species or system BALB/c mice. The following applies: mouse, in vivo, po. How it is done: as §1
Once all tumors were dissected, nail-sized tumor pieces were transferred to 1.5 mL Eppendorf tubes and minced with scissors. […] After digestion, pass the mixture through a 200-mesh sieve to obtain the tumor cell suspension. […] Position the spleen on a 200-mesh cell strainer. Gently press the spleen using a 10 mL syringe needle. […] Transfer the washed splenocyte suspension into a 15 mL centrifuge tube. Centrifuge at 1600 rpm for 5 min to collect cells. Wash once with 1×PBS. Add 3 mL red blood cell lysis buffer (diluted with ddH2O) to each tube and incubate for 5 min. After lysis, add 10 mL 1×PBS to each tube to terminate lysis. Centrifuge at 1600 rpm for 5 min. Add 1 mL 1×PBS to each 15 mL centrifuge tube, transfer to 1.5 mL EP tubes, and centrifuge at 1600 rpm for 5 min. Add 1 mL 1×PBS to each tube containing stained tumor cells and lysed spleen cells for one wash, centrifuge at 1600 rpm for 5 min, and remove the supernatant.
Once all tumors were dissected, nail-sized tumor pieces were transferred to 1.5 mL Eppendorf tubes and minced with scissors. […] After digestion, pass the mixture through a 200-mesh sieve to obtain the tumor cell suspension. Centrifuge the resulting tumor suspension at 1600 rpm for 5 min, aspirate the supernatant, resuspend cells in 1 mL of 1×PBS per tube. […] Position the spleen on a 200-mesh cell strainer. Gently press the spleen using a 10 mL syringe needle. […] Transfer the splenocyte suspension into a 15 mL centrifuge tube. Centrifuge at 1600 rpm for 5 min to collect cells. Wash once with 1×PBS. Add 3 mL red blood cell lysis buffer (diluted with ddH2O) to each tube and incubate for 5 min. After lysis, add 10 mL 1×PBS to each tube to terminate lysis. Centrifuge at 1600 rpm for 5 min.

A further data set deals with CT26 cells. The format is in vivo, BALB/c mice.
The subject of a further data set is 4T1 cells. The format is in vivo, BALB/c mice. How it is done:
4T1 cells were cultured and expanded in vitro. […] A 100 µL aliquot of this suspension was injected subcutaneously into the left forelimb axilla of female BALB/c mice. […] Daily oral administration was performed for 3 weeks. During the treatment period, mouse body weight and tumor diameter were measured daily. At the end of the experiment, mice were euthanized by cervical dislocation, and tumors were removed for weighing. Tumor volume (TV) was calculated using the formula: TV = 1/2 × a × b^2, where a represents the longest diameter of the tumor and b represents the shortest diameter.

The target of data set [1] is farnesyltransferase (FTase) (Homo sapiens, UniProt P49354+P49356). Particulars: in vitro; cited from earlier work.
Chain of farnesyltransferase (FTase) (P49356 whole entry, one chain of several): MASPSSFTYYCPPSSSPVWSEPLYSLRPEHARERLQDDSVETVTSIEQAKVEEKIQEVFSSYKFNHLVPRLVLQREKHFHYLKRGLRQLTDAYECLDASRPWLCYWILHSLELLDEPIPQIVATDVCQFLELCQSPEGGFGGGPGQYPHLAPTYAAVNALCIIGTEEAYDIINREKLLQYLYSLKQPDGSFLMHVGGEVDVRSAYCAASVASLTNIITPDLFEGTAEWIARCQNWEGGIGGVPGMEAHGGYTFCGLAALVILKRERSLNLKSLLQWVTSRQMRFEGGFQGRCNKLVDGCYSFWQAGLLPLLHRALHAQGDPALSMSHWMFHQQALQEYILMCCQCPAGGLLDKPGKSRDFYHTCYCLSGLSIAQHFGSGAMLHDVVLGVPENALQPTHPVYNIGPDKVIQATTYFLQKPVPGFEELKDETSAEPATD
The conditions of data set [2]: gastric fluid, within 8 hours; cited from earlier work.
The conditions of data set [3]: in vivo; cited from earlier work.
In another data set the test system is tumor cells. The following applies: in vitro cell models; cited from earlier work.
Another data set has as its system Hepa1-6. Particulars: 30 mg/kg intraperitoneal injection, 14 consecutive days; cited from earlier work.
Another data set can be described thus: physchem. Particulars: deionized water, 37 °C, thermodynamic from solid.
The mark [4] stands for this setting: Hepa1-6, oral 40 µmol/kg/d, 2 weeks.

≈ marks a conversion by molar mass, not a printed value.

On to `C=C1C(=O)O[C@@H]2[C@H]3C(C)=CC[C@@]34O[C@@]4(C)CC[C@@H]12` [Arg, Arglabin], for which the “Suppression Rate (%)” value with MDSCs (1 µM) came out at 42.5%; in the data set with MDSCs (10 µM) it was 73.2%. For the same compound, the “CCR2 mRNA suppression rate in MDSCs (%)” value in the data set on CCR2 mRNA (1 µM) was found to be 22.3%; with CCR2 mRNA (10 µM), 69.7%. The “Tumor Inhibition Rate (%)” value in the data set with Hepa1-6 cells (mouse, in vivo, po) is 95.86%; in the data set with CT26 cells (mouse, in vivo, po), 34.94%; in the data set with 4T1 cells (mouse, in vivo, po), 12.87%. The “Tumor weight” value in the data set on Hepa1-6 cells (mouse, in vivo, po) stood at 0.04 ± 0.03 g; with H22 cells, 5.18 ± 0.61 g; in the data set on CT26 cells (mouse, in vivo, po), 5.31 ± 0.51 g; with 4T1 cells (mouse, in vivo, po) it was 1.58 ± 0.21 g. In addition, in the data set on H22 cells, the “Tumor Suppression Rate (%)” value came out at 39.43%. In addition, the “Spleen MDSCs (%)” value with MDSCs; T cells turned out to be 27.89±4.72 %. In addition, the “Spleen T cells (%)” value with MDSCs; T cells is given as 27.02±4.07%. For the same compound, the “Tumor T cells(%)” value in the data set with MDSCs; T cells came out at 17.72±6.12 %. For the same compound, the “Tumor-associated MDSCs (%)” value in the data set on MDSCs; T cells stood at 27.0±7.93 %. The antitumor effects entry is on record as “tumor-inhibiting effects” with CT26 cells (CT26, oral 80 µmol/kg/day, 3 weeks) and “no significant antitumor effects” in the data set on 4T1 cells (4T1, oral 40 µmol/kg/day, 3 weeks). Moreover, the IC50 entry in [1] is reported as “micromolar level”. Moreover, in data set [2], the degradation rate is on record as 50%. In addition, the oral bioavailability in data set [3] is recorded as 5%.
A word on the solubility: it is the concentration that dissolves in the medium under given conditions. Regarding `C=C1C(=O)O[C@H]2[C@H]1CCC(C)=C1CC[C@@](C)(O)[C@@H]12` [MCL, Micheliolide], in the data set with Hepa1-6 cells (setting [4]), the “Tumor Inhibition Rate (%)” value amounted to 70.52% and the “Tumor weight” value came out at 0.27 ± 0.24 g. In addition, the IC50 result in the data set with tumor cells is reported as “micromolar range”. The “tumor weight inhibition rate” value with Hepa1-6 is given as 50%. The compound also displayed a solubility in “physchem” of 62 µg/mL (≈ 250 µM).
